Results taken from US20020091086A1, “Peptides that block viral infectivity and methods of use thereof” (priority 1999, published 2002).
Peptide text beside a SMILES is read from it.

Columns and labels:
recombinant gp120 = target: T1, recombinant gp120 (Human immunodeficiency virus type 1 group M subtype B, UniProt P03375); test: dialysis-based binding assay with 14C-GPG-NH2, gp120; design: species or system HIV-1; settings: dialysis 2 days at 4° C. against 27.5 μM 14C-GPG-NH2; buffer 1.816
T1 construct: recombinant proteins p24 and gp120 (gifts from the AIDS program, NCIB); purchased AIDS program, NCIB (gift, not bought)
Method: (§1) A dialysis-based binding assay was conducted using a dialysis membrane with a pore size of less than 10 kD. (Slide-A-Lyzer, Pierce). Fifty microliters of a 10 μM stock of the recombinant proteins p24 and gp120 (gifts from the AIDS program, NCIB) and BSA (Sigma) were introduced into separate dialysis membranes and the proteins were dialyzed at 4° C. for 2 days against a 500 ml solution composed of 150 mM NaCl and 50 mM Tris-HCl, pH 7.4 buffer and 27.5 μM of ^14C-GPG-NH2 (Amersham Ltd. UK). Subsequently, ten or five microliter aliquots of the dialyzed p24, gp120, and BSA were removed and mixed with 3 ml of ReadySafe (Beckman) in a scintillation vial. The C^14 was then detected by scintillation counting.

human mononuclear cells = test: in vitro proliferative response of human mononuclear cells; type: cell-based; settings: 20 μM
Method: Next, the toxicity to normal human lymphomonocytic cells (PBMC) was examined. […] The effect of GPG-NH2 on in vitro proliferative response of human mononuclear cells was also tested.

HIV-1 RNA = test: Northern blot of HIV-1 RNA in infected H-9 cells; type: cell-based
Method: To study proviral DNA and viral RNA synthesis, DNA and RNA from HIV-1 infected H-9 cells cultured in the presence of a small peptide were prepared at various time points (0-48 h).
By Northern blot analysis, three RNA bands (9.2, 4.3, 2.0 kb) were detected 24-48 h after infection. The 9.2 kb RNA acts as both the genomic RNA and as the mRNA for the gag and pol genes. The 4.3 kb singly-spliced RNA represents at least the env gene, and the multiply-spliced 2 kb RNA encodes for the regulatory genes.

Jurkat-tat III cells = test: in vitro uptake of 14C-labelled GPG-NH2 into cells; type: in vitro ADME; settings: 165 nCi (0.7 μM)
Method: (§2) Additionally, the in vitro uptake of small peptides from the culture medium into the cells was studied in a series of experiments. Accordingly, HUT78, Jurkat-tat III, and MT-2 cells were incubated with ^14C-labelled GPG-NH2 165 nCi (equivalent to 0.7 μM of GPG-NH2). An uptake of the small peptide was observed and between 8% (Jurkat-tat III cells) and 20% (HUT78 cells) of the GPG-NH2 was incorporated in the cells.

HUT78 cells = test: in vitro uptake of 14C-labelled GPG-NH2 into cells; type: in vitro ADME; settings: 165 nCi (0.7 μM)
Method: as §2

[1] = acid stability in 50 mM KCl and 0.1M HCl by TLC; type: physicochemical; settings: up to 24 hours
Method: Because an oral administration of a pharmaceutical comprising a small peptide is desired, the acid stability of small peptides was assessed by incubating ^14C-labelled GPG-NH2 in a solution of 50 mM KCl and 0.1M HCl for various time periods. After acid hydrolysis, the radiolabeled tripeptide was analyzed by thin layer chromatography (TLC) and the HPTLC plate was developed with 25% methanol: 25%isopropanol: 15% butanol: 35% (0.1N HOAc and 0.1N NaOAc).

[2] = four week oral toxicology study in rats; type: in vivo; settings: orally up to 1 g per kilo bodyweight per day, twenty eight days
Method: (§3) In this example, the results from several in vivo toxicology studies on small peptides administered in large doses to rodents are presented. In a first experiment, a large single dose of small peptide was delivered to mice and the toxic effects were analyzed. […] In a second experiment, several doses of varying amounts of a small peptide were delivered to mice for almost three weeks. Groups of mice (five mice in each group) were given intraperitoneal injections of GPG-NH2 (0.01, 0.1 and 1 g per kilo bodyweight and day, respectively) starting at an age of 6 days. Daily injections were continued for 18 days. […] In a similar experiment, a four week toxicology study of GPG-NH2 was performed by Scantox A/S in Denmark. GPG-NH2 was given orally to rats at doses up to 1 g per kilo bodyweight per day for twenty eight days.

BSA = target: T2, BSA (Bos taurus, UniProt P02769); test: dialysis-based binding assay with 14C-GPG-NH2, BSA; settings: dialysis 2 days at 4° C. against 27.5 μM 14C-GPG-NH2; buffer 1.816
T2 construct: purchased Sigma
Method: as §1

HIV-1 SF-2 virus = test: combination of GPG-NH2 with AZT or Ritonavir in HUT78 cells, p24; type: cell-based
influenza = test: inhibition of influenza virus; type: cell-based
Jurkat-tat III = test: cytotoxicity, trypan-blue dye exclusion and cell counting; settings: 40 mM, 3 days of culture
Method: (§4) The in vitro 50% cytotoxic concentrations (CC50) of various cell lines was also assessed. Accordingly, different concentrations of GPG-NH2, up to 40 mM, was supplemented into the medium culture of T-cell lines HUT78, H9, CEM-SS, MT-2 and (non) induced ACH-2, as well as, the macrophage derived cell lines […], THP-1 and (non) induced U-1 cells. After 3 days of incubation, the number of cells were counted.

HUT78 = test: as above; settings: 40 mM, 3 days of culture
Method: as §4

MT-2 = test: as above; settings: 40 mM, 3 days of culture
Method: as §4

HIV-1 strain HTLV-IIIB = settings: passaged in serial dilutions for more than six months
[3] = 18 day intraperitoneal toxicity in mice; type: in vivo; settings: intraperitoneal 0.01, 0.1 and 1 g per kilo bodyweight and day, 18 days from age 6 days
Method: as §3

For `NCC(=O)N1CCC[C@H]1C(=O)NCC(N)=O` [GPG-NH2, glycyl-prolyl-glycine amide] (H-Gly-Pro-Gly-NH2), the “N- or O-linked glycosylation of the virus protein” value (gp160) was “no effect”, the “radioactive GPG-NH2 associated with gp120” value (recombinant gp120) was 1.745 μCi/ml and the “anti-proliferative properties on T cells” value (human mononuclear cells) was “marginal if any direct anti-proliferative properties”. For the same compound, the “function of accessory cells (monocytes and dendritic cells)” value (human mononuclear cells) was “did not affect the function of accessory cells”, the “expression of HIV-1 RNAs (9.2, 4.3, 2.0 kb)” value (HIV-1 RNA; 20 μM, up to 48 h post infection) was “no inhibitory effect” and the “HIV-1 RNA” value (HIV-1 RNA; 200 μM and 2,000 μM, 48 h after infection) was “a reduction of HIV-1 RNA was noticed”. For the same compound, the “GPG-NH2 incorporated in the cells” value (Jurkat-tat III cells) was 8%, the “GPG-NH2 incorporated in the cells” value (HUT78 cells) was 20% and the “TLC mobility after acid exposure” value [1] was “did not affect the mobility”. The signs of toxicity [2] was “No signs of toxicity”, the “radioactive GPG-NH2 associated with BSA” value (BSA) was 1.674 μCi/ml and the “effect on inhibition of HIV-1 replication in the presence of AZT” value (HIV-1 SF-2 virus; combination with AZT) was “synergistically”. The “antiviral effect together with Ritonavir” value (HIV-1 SF-2 virus; combination with Ritonavir) was “additive antiviral effect”, the “inhibition of influenza virus” value (influenza) was “failed inhibit either influenza or polio viruses” and the “inhibition of cell growth” value (Jurkat-tat III) was roughly 40%. The “inhibition of cell growth” value (HUT78) was roughly 40%, the “inhibition of cell growth” value (MT-2) was roughly 40% and the “development of resistance in vitro” value (HIV-1 strain HTLV-IIIB) was “without overt signs of development of resistance”. For the same compound, the “influence on the mice compared to controls” value [3] was “no significant influence”.
